Key:
[1] = system: ornithine decarboxylase (ODC); test: inhibition of TPA induction of ornithine decarboxylase (ODC); type: in vivo
Description: The retinoid-like activity of these compounds is confirmed through the classic measure of retinoic acid activity involving the effects of retinoic acid on ornithine decarboxylase. The original work on the correlation between retinoic acid and decrease in cell proliferation was done by Verma & Boutwell, Cancer Research, 1977, 37,2196-2201. That reference discloses that ornithine decarboxylase (ODC) activity increased precedent to polyamine biosynthesis. It has been established elsewhere that increases in polyamine synthesis can be correlated or associated with cellular proliferation. Thus, if ODC activity could be inhibited, cell hyperproliferation could be modulated. Although all causes for ODC activity increases are unknown, it is known that 12-0-tetradecanoylphorbol-13-acetate (TPA) induces ODC activity.

[2] = system: ornithine decarboxylase (ODC); conditions: general statement, TPA-induced ODC; cited from earlier work

| SMILES | IC80 [1] | inhibition of TPA induction of ODC activity [2] |
| --- | --- | --- |
| CC1(C)CCCC2(C)OC12C#Cc1ccc2cc(C(=O)O)ccc2c1 (racemic) [Compound 1, 6-[2-(1,2-epoxy-2,6,6-trimethyl-cyclohexan-1-yl)-ethynyl]-2-naphthoic acid] | 30.5 nM |  |
| CC1=C(/C=C/C(C)=C/C=C/C(C)=C/C(=O)O)C(C)(C)CCC1 [Retinoic acid] |  | inhibits this induction of ODC activity by TPA |

Reference: patent US5451605A, “1,2-epoxycyclohexanyl and bicyclic aromatic substituted ethyne compounds having retinoid-like biological activity” (Allergan, Inc., priority 1993, dated 1995)
